Columns and labels:
Wistar male rats = experiment: Stress-induced hyperthermia (SIH) test; assay type: in vivo, rat; conditions: n = 8
Method: SIH test is commonly used to evaluate the potential anti-anxiety effect of drugs. Thermometry was performed rectally in rats with a BIOSEB thermometer. Eight Wistar male rats were injected i.p. with vehicle or LK00764, dissolved in 10% tween 80 saline solution. Latin square design was used for the experiment. The first measurement was performed directly before the injection and the second measurement was performed 15 min later. The difference between the first and the second temperature was calculated.
Another behavioral paradigm known to be affected by TAAR1 agonists is the stress-induced hyperthermia test, which is believed to be a sensitive approach to evaluate the anxiolytic action of compounds [10, 42, 39a]. Thus, compound 62 (LK00764) was evaluated in this test at doses of 3 and 5 mg/kg, i.p. (Figure 7). At both doses, this compound was effective in suppressing stress-induced hyperthermia in rats (p < 0.05 and p < 0.001 for 3 and 5 mg/kg, respectively; Dunn’s test).

TAAR1 = target: T1, TAAR1 (Homo sapiens, UniProt Q96RJ0); experiment: BRET-based cellular cAMP (EPAC biosensor) assay of TAAR1 agonism in transfected HEK-293 cells; conditions: for Emax: HEK293, read-out: Emax: maximum observed activation of TAAR1 relative to that observed for 1 μM of β-PEA
T1 sequence (Q96RJ0 1-339): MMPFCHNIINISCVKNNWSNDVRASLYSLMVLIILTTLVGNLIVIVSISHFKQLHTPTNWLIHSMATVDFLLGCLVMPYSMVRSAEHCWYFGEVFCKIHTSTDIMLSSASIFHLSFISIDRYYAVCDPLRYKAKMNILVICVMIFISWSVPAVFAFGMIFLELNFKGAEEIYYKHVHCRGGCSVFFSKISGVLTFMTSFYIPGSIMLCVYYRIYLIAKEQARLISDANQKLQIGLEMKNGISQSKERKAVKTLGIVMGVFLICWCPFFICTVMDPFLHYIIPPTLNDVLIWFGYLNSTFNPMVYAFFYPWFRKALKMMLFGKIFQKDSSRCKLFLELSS
Method: The Bioluminescence Resonance Energy Transfer approach (BRET) has been used for functional activity experiments. HEK-293 cells were transiently transfected with cDNA for TAARs and cAMP BRET biosensor (EPAC) and then plated in a 96-well plate, as described [23]. All compounds were tested at the initial concentration of 10 µM. […] A natural agonist of TAAR1 β-phenylethylamine (β-PEA) was used as a positive control.

[1] = tested on: MK-801-treated Wistar rats; experiment: MK-801-induced hyperactivity in rats (Actometer); assay type: in vivo, rat
Method: (§1) MK-801 (dizocilpine, (+)-5-methyl-10,11-dihydro-5H-dibenzo-[a,d]-cyclohepten-5,10-imine maleate; Sigma-Aldrich, St. Louis, MO, USA) was dissolved in saline. Compound 62 (LK00764) was dissolved in 10% Tween 80 saline solution. All solutions were made fresh shortly before injections. Drug doses were tested in a pseudo-random order derived from Latin square design with at least 72 h between consecutive tests. All drugs and vehicles were administered intraperitoneally (i.p.) in the volume of 1 mL/kg. Drug doses are reported as salts. Selection of the MK-801 dose (0.2 mg/kg) was based the previous experience with the compound [24]. All locomotor activity tests (duration—60 min) were performed 15 min after the administration of compounds.
We evaluated locomotor activity of rats in the Actometer apparatus. A detailed description of the apparatus has been presented before. […]
Glutamate NMDA receptor antagonist-induced hyperactivity in rodents is commonly used as a pharmacological animal model of schizophrenia in the screening of potential antipsychotics. […] Thus, we used MK-801 (0.2 mg/kg, i.p.) treatment to induce hyperactivity in rats and analyzed the effects of compound 62 (LK00764) at doses of 0.3, 1, 3, 5, and 10 mg/kg, i.p. on locomotor activity of MK-801-treated Wistar rats.

intact Wistar rats = experiment: Spontaneous locomotor activity of intact rats (Actometer); assay type: in vivo, rat; conditions: 0.3–10 mg/kg i.p., n = 9
Method: as §1
(§2) We evaluated locomotor activity of rats in the Actometer apparatus. A detailed description of the apparatus has been presented before. Shortly, each box of the apparatus was equipped by photocell-based infrared sensors to assess horizontal and vertical activity. Wistar rats were tested in the apparatus following a one-week habituation period (baseline period). During this period, the animals were placed in locomotor activity boxes for 60 min per day, 6 days a week to habituate them to the environment. […]
Next, we analyzed the locomotor effects of compound 62 (LK00764, 0.3–10 mg/kg, i.p.) on the additional group of intact rats (n = 9).

DAT-KO rats = experiment: Spontaneous locomotor hyperactivity of dopamine transporter knockout (DAT-KO) rats; assay type: in vivo, rat
Method: as §1
as §2, with “period).” for “period). During this period, the animals were placed in locomotor activity boxes for 60 min per day, 6 days a week to habituate them to the environment.”
Animals without DAT have a disrupted re-uptake of dopamine resulting in remarkably elevated extracellular dopamine levels and spontaneous locomotor hyperactivity. […] Thus, we next evaluated the effects of LK00764 (1–10 mg/kg, i.p.) on spontaneous locomotor hyperactivity of DAT-KO rats (n = 9).

SMILES | suppression of stress-induced hyperthermia (Wistar male rats; 3 mg/kg i.p., p < 0.05 Dunn's test) | suppression of stress-induced hyperthermia (Wistar male rats; 5 mg/kg i.p., p < 0.001 Dunn's test) | EC50 (TAAR1) | potency relative to Ulotaront (times higher) (TAAR1) | Emax (TAAR1) | effect on MK-801-induced hyperactivity (horizontal and vertical activity) ([1]; 0.3, 1, 3, 5, 10 mg/kg i.p., MK-801 0.2 mg/kg i.p., Friedman test, horizontal p < 0.05, vertical p < 0.01, n = 7) | effect on horizontal and vertical locomotor activity vs vehicle in MK-801-treated rats ([1]; doses of 5 and 10 mg/kg i.p., Dunnett's test p < 0.05) | vertical activity of intact rats (intact Wistar rats; Friedman p < 0.001) | horizontal activity of intact rats (intact Wistar rats; Friedman p = 0.60) | horizontal and vertical activity of DAT-KO rats (DAT-KO rats; 1–10 mg/kg i.p., n = 9, Friedman p < 0.05) | locomotor hyperactivity of DAT-KO rats vs vehicle (DAT-KO rats; only the highest tested dose, 10 mg/kg i.p., Dunnett's test) | melting point
Cl.NCCc1nnc(-c2ccc(-c3ccc(Cl)cc3)cc2)[nH]1 [Compound 62, 2-(5-(4′-Chloro-(1,1′-biphenyl)-4-yl)-4H-1,2,4-triazol-3-yl)ethan-1-amine Hydrochloride] | effective | effective | 4 nM | more than 30 times | 101% | dose-dependently mitigated | significant | decreased | did not affect | significant dose-dependent decrease | significantly (p < 0.05) diminished | 247 to 249 °C
Cl.NCCc1nnc(-c2ccc(-c3cccc(C(F)(F)F)c3)cc2)[nH]1 [Compound 63, 2-(5-(3′-Trifluoromethyl-(1,1′-biphenyl)-4-yl)-4H-1,2,4-triazol-3-yl)ethan-1-amine Hydrochloride] |  |  | 250 nM |  | 76% |  |  |  |  |  |  | 210 to 212 °C
COc1ccc(-c2ccc(-c3nnc(CCN)[nH]3)cc2)cc1OC.Cl [Compound 64, 2-(5-(3′,4′-Dimethoxy-(1,1′-biphenyl)-4-yl)-4H-1,2,4-triazol-3-yl)ethan-1-amine Hydrochloride] |  |  | 185 nM |  | 104% |  |  |  |  |  |  | 199 to 201 °C
Cl.NCCc1nnc(-c2ccc(-c3cc(F)cc(F)c3)cc2)[nH]1 [Compound 65, 2-(5-(3′,5′-Difluoro-(1,1′-biphenyl)-4-yl)-4H-1,2,4-triazol-3-yl)ethan-1-amine Hydrochloride] |  |  | 13 nM |  | 105% |  |  |  |  |  |  | 260 to 262 °C
Cl.NCCc1nnc(-c2cccc(-c3ccc(OC(F)(F)F)cc3)c2)[nH]1 [Compound 67, 2-(5-(4′-(Trifluoromethoxy)-(1,1′-biphenyl)-3-yl)-4H-1,2,4-triazol-3-yl)ethan-1-amine Hydrochloride] |  |  | 96 nM |  | 94% |  |  |  |  |  |  | 253 to 257 °C
